{"source": "patent US6558900B2", "about": "“Regulation of apoptosis and in vitro model for studies thereof” (Emory University, priority 1996, dated 2003)", "note": "“Also recorded” adds a separate entry of the source.", "data": [{"tested_on": "CPP32", "experiment": "Assay for dATP-dependent activation of CPP32 protease (cleavage of in vitro translated 35S-labeled CPP32 in HeLa S-100)", "type": "biochemical, hamster", "settings": "1 mM nucleotide, 30° C., 1 hr", "experimental": "The samples were subjected to SDS-PAGE and transferred to a nitrocellulose filter. The filter was exposed to film for 16 hours at room temperature. In FIG. 2B, a 50 μl aliquot of HeLa S-100 (250 μg) was incubated with each aliquot of 6 μl hamster liver nuclei at 37° C. for 2 hr in the presence of 1 mM indicated nucleotide. The DNA was isolated, analyzed by 2% agarose gel electrophoresis and visualized by ethidium bromide staining.\nTo test the nucleotide specificity for activation of CPP32 and DNA fragmentation, HeLa cell S-100 was incubated with in vitro translated, ^35S-labeled CPP32 in the presence of 1 mM of various nucleotides (FIG. 2A).\nA PCR fragment encoding amino acids 29-277 of hamster CPP32 [Wang et al. (1996) supra] was cloned into NdeI and BamHI sites of pET 15b vector (Novagen, Madison, Wis.). The resulting fusion protein of six histidines with hamster CPP32 (amino acids 29-277) was translated in a TNT T7 transcription/translation kit (Promega, Madison, Wis.) in the presence of ^35S-methionine according to the manufacturer's instructions. The translated protein was passed through a 1 ml nickel affirmity column (Qiagen, Chatsworth, Calif.) equilibrated with buffer A. After washing the column with 10 ml of buffer A, the translated CPP32 was eluted with buffer A containing 250 mM imidazole. Human SREBP-2 was translated in a TNT SP6 transcription/translation kit as described [Wang et al. (1995) [Hua et al. (1993) Proc. Natl. Acad. Sci. USA 90, 11603-11607]. Full length human PARP cDNA [Chemey et al. (1987) Proc. Natl. Acad. Sci. USA 84, 8370-8374] was cloned into SmaI and EcoRI sites of pBK-CMV vector (Stratagene, La Jolla, Calif.) and translated in a TNT T7 transcription/translation kit [Promega, Madison, Wis.]. The translated SREBP-2 and PARP (200 μl each) were purified by passing each translation mixture through a 10-ml Sephadex G-25 gel-filtration column equilibrated with buffer A. The translated proteins contained within the exclusion volume of the column were collected.\nCPP32 was translated and purified as described above. Aliquot of 3 μl of the in vitro translated CPP32 was incubated with the indicated protein fraction, nucleotides, and 1 mM additional MgCl2 at 30° C. for 1 hour in a final volume of 20 μl of buffer A. At the end of the incubation, 7 μl of 4×SDS sample buffer was added to each reaction. After boiling for 3 min, each sample was subjected to a 15% SDS-polyacrylamide gel electrophoresis (SDS-PAGE). The gel was transferred to a nitrocellulose filter which was subsequently exposed to a Kodak X-OMAT AR X-ray film (Eastman Kodak, Rochester, N.Y.) for 16 hr at room temperature.", "values": [{"compound": "Nc1ncnc2c1ncn2[C@@H]1O[C@H](COP(=O)(O)OP(=O)(O)O)[C@@H](O)[C@H]1O", "note": "[ADP]", "cleavage of 35S-labeled CPP32 (nucleotide specificity)": "did not replace dATP"}, {"compound": "Nc1ncnc2c1ncn2[C@@H]1O[C@H](COP(=O)(O)O)[C@@H](O)[C@H]1O", "note": "[AMP]", "cleavage of 35S-labeled CPP32 (nucleotide specificity)": "did not replace dATP"}, {"compound": "Nc1ccn([C@@H]2O[C@H](COP(=O)(O)OP(=O)(O)OP(=O)(O)O)[C@@H](O)[C@H]2O)c(=O)n1", "note": "[CTP]", "cleavage of 35S-labeled CPP32 (nucleotide specificity)": "did not replace dATP"}, {"compound": "Nc1nc2c(ncn2[C@@H]2O[C@H](COP(=O)(O)OP(=O)(O)OP(=O)(O)O)[C@@H](O)[C@H]2O)c(=O)[nH]1", "note": "[GTP]", "cleavage of 35S-labeled CPP32 (nucleotide specificity)": "did not replace dATP"}, {"compound": "O=c1ccn([C@@H]2O[C@H](COP(=O)(O)OP(=O)(O)OP(=O)(O)O)[C@@H](O)[C@H]2O)c(=O)[nH]1", "note": "[UTP]", "cleavage of 35S-labeled CPP32 (nucleotide specificity)": "did not replace dATP"}, {"compound": "Nc1ncnc2c1ncn2[C@@H]1O[C@H](CO)[C@@H](O)[C@H]1O", "note": "[adenosine]", "cleavage of 35S-labeled CPP32 (nucleotide specificity)": "did not replace dATP"}, {"compound": "Nc1ncnc2c1ncn2[C@H]1C[C@H](O)[C@@H](COP(=O)(O)OP(=O)(O)O)O1", "note": "[dADP]", "cleavage of 35S-labeled CPP32 (nucleotide specificity)": "Cleavage occurred; also recorded: can substitute for dATP"}, {"compound": "Nc1ncnc2c1ncn2[C@H]1C[C@H](O)[C@@H](COP(=O)(O)O)O1", "note": "[dAMP]", "cleavage of 35S-labeled CPP32 (nucleotide specificity)": "did not replace dATP"}, {"compound": "Nc1ccn([C@H]2C[C@H](O)[C@@H](COP(=O)(O)OP(=O)(O)OP(=O)(O)O)O2)c(=O)n1", "note": "[dCTP]", "cleavage of 35S-labeled CPP32 (nucleotide specificity)": "did not replace dATP"}, {"compound": "Nc1nc2c(ncn2[C@H]2C[C@H](O)[C@@H](COP(=O)(O)OP(=O)(O)OP(=O)(O)O)O2)c(=O)[nH]1", "note": "[dGTP]", "cleavage of 35S-labeled CPP32 (nucleotide specificity)": "did not replace dATP"}, {"compound": "Cc1cn([C@H]2C[C@H](O)[C@@H](COP(=O)(O)OP(=O)(O)OP(=O)(O)O)O2)c(=O)[nH]c1=O", "note": "[dTTP]", "cleavage of 35S-labeled CPP32 (nucleotide specificity)": "did not replace dATP"}, {"compound": "Nc1ncnc2c1ncn2[C@H]1C[C@H](O)[C@@H](CO)O1", "note": "[deoxyadenosine]", "cleavage of 35S-labeled CPP32 (nucleotide specificity)": "did not replace dATP"}]}, {"tested_on": "CPP32", "experiment": "Apaf-2 activity: recombining with phosphocellulose flow through fraction (Apaf-1) and 35S-labeled CPP32", "type": "biochemical, human", "settings": "one unit = cleavage of 1% of the input substrate in 60 min", "experimental": "FIG. 3 illustrates fractionation and reconstitution of dATP-dependent activation of CPP32 by phosphocellulose chromatography. HeLa cell S-100 was subjected to phosphocellulose chromatography and the column flow through and bound material were collected as described in the Examples. Aliquots (10 μl) of HeLa S-100 (50 μg) (lanes 1 and 2), phosphocellulose flow through fraction (PC-FT) (lanes 3 and 4), phosphocellulose bound fraction (PC-B) (lanes 5 and 6), and the mixture of phosphocellulose flow through and bound material (lanes 7 and 8) were incubated with aliquots of 3 μl in vitro translated, ^35S-labeled CPP32 at 30° C. for 1 hr in the absence (lanes 1,3,5,7) or presence (lanes 2,4,6,8) of 1 mM dATP. The samples were subjected to SDS-PAGE, transferred to a nitrocellulose filter, and the filter was exposed to film for 16 hours at room temperature.\nThe Apaf-2 activity that bound to the phosphocellulose column was purified through the Mono S column as described in Example 7. […] In FIG. 4B, aliquots (30 μl) of the Mono-S fractions were subjected to 15% SDS-PAGE and the proteins were visualized by silver staining.\nAliquots of 0.2 μg of Apaf-2 purified through the Mono S column (lanes 1, 2), cytochrome c from bovine heart (lanes 3, 4), and rat liver (lanes 5, 6) were incubated with aliquots of 10 μl phosphocellulose flowthrough fraction and 3 μl in vitro translated, 35S-labeled CPP32 at 30° C. for 1 hr in a final volume of 20 μl buffer A in the absence (lanes 1,3,5) or presence of (lanes 2, 4, 6) 1 mM dATP. Samples were subjected to SDS-PAGE and transferred to a nitrocellulose filter which was then exposed to a film for 16 hr at room temperature.\nTo isolate the protein(s) required for the activation of CPP32, HeLa S-100 was loaded onto a phosphocellulose column, and the flow-through and bound fractions were collected. […] When the flowthrough and bound fractions were mixed, CPP32-activating activity was restored (lanes 7-8). […] The factor(s) that flow through the phosphocellulose column are designated apoptotic protease activating factor-1 (Apaf-1) and the factor that bound to the column is designated apoptotic protease activating factor-2 (Apaf-2). It is understood that “Apaf-1” may represent more than one protein or it may represent a combination of protein(s) and other factors.\nApaf-2 activity was assayed by recombining with Apaf-1 after purification by the following steps. First, the Apaf-2 fraction was subjected to 50% ammonium sulfate precipitation. All of the activity remained in the supernatant while most of the protein precipitated (Table I). The supernatant was loaded onto a phenyl-sepharose (hydrophobic interaction) column and the activity was eluted with 1 M ammonium sulfate. The eluate was passed through a gel filtration column; active fractions were subjected to sequential Mono Q (anion exchange) and Mono S (cation exchange) chromatography. The Apaf-2 activity flowed through the Mono Q column, and the flow through was directly loaded onto the Mono S column. Bound Apaf-2 activity was then eluted with a 100-300 mM NaCl linear salt gradient. The fractions from the Mono S column were collected and assayed. […] The active fractions were analyzed by SDS-PAGE (FIG. 4B). A protein of apparent molecular mass of 15 kDa was co-eluted with the activity. No other proteins were detected by silver staining in the active Apaf-2 fractions.\nCPP32 was translated and purified as described above. […]", "units": {"Specific Activity": "units/mg", "Total Activity": "unit"}, "values": [{"compound": "Mono Q/Mono-S: Apaf-2 purification step 6: Apaf-2 purified through the Mono S column", "Specific Activity": 263150, "Total Activity": 20000}]}]}
